Key:
Test in all cases: Kinase Selectivity Assay (CEREP, HTRF)
Format in all cases: biochemical
CDK2 (cycE) = target: T1, CDK2 (cycE) (Homo sapiens, UniProt P24941); settings: read-out: % Inhibition at 10 μM Concentration, CDK2 (cycE)
T1 construct: CEREP, France (ran the assays)
Description: (§1) kinase, ROCK2, RSK2, Src kinase, Syk, and TRKA. The % Inhibition was determined

CSK = target: T2, CSK (Homo sapiens, UniProt P41240); settings: read-out: % Inhibition at 10 μM Concentration, CSK
T2 construct: CEREP, France (ran the assays)
T2 sequence (P41240 whole entry): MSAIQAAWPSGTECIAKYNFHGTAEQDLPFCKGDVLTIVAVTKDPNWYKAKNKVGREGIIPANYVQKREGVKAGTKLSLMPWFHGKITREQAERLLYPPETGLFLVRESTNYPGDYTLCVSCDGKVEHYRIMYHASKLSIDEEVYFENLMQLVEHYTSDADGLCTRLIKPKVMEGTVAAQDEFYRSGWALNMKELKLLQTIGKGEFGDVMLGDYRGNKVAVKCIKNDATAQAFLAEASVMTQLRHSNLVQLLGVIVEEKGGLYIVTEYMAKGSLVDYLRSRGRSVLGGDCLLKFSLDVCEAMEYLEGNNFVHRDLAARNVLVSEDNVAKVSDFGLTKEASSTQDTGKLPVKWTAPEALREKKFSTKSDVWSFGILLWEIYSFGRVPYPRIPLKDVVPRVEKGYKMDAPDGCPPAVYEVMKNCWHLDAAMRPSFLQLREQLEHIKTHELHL
Description: as §1

EphB4 kinase = target: T3, EphB4 kinase (Homo sapiens, UniProt P54760); settings: read-out: % Inhibition at 10 μM Concentration, EphB4
T3 construct: CEREP, France (ran the assays)
T3 sequence (P54760 16-987): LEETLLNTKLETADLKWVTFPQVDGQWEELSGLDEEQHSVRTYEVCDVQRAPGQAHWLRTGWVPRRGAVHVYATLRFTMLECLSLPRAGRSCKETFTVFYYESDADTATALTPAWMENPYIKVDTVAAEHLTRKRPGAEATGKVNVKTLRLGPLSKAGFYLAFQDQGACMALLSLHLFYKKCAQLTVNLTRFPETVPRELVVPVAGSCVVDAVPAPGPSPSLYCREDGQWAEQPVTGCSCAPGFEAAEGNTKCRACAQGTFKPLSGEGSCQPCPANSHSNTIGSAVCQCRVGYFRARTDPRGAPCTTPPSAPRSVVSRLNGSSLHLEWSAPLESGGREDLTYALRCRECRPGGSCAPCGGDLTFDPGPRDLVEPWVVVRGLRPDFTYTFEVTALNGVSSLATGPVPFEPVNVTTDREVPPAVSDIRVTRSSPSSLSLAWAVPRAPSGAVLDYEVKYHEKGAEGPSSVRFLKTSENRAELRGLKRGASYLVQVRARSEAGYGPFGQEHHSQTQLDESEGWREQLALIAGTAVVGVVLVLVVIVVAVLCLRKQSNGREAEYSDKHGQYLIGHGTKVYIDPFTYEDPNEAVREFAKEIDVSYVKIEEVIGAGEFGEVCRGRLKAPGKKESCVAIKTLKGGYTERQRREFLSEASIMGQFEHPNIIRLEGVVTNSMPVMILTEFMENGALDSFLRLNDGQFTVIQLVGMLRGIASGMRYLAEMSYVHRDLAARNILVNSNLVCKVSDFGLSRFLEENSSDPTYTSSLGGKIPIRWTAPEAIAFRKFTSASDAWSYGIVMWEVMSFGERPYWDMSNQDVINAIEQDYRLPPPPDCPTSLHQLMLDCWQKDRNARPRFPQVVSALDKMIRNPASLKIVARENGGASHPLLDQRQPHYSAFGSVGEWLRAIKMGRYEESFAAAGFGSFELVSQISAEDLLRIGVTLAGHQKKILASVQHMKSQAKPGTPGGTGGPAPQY
Description: as §1

MAPKAPK2 = MAPKAPK2 (Homo sapiens, UniProt P49137); settings: read-out: % Inhibition at 10 μM Concentration, MAPKAPK2
Sequence of MAPKAPK2 (P49137 whole entry): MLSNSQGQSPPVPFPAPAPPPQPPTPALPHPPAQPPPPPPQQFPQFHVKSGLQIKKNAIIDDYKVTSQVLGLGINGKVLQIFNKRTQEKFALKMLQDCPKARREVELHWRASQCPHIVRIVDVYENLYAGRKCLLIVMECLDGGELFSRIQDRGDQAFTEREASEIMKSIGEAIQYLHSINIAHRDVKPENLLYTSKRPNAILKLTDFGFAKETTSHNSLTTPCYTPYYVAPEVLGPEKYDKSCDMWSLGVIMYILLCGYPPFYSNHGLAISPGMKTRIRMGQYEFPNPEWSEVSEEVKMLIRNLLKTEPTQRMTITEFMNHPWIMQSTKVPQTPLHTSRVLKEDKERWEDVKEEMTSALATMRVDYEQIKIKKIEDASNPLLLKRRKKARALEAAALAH
Description: as §1

MEK1/MAP2K1 = MEK1/MAP2K1 (Homo sapiens, UniProt Q02750); settings: read-out: % Inhibition at 10 μM Concentration, MEK1/MAP2K1
Sequence of MEK1/MAP2K1 (Q02750 whole entry): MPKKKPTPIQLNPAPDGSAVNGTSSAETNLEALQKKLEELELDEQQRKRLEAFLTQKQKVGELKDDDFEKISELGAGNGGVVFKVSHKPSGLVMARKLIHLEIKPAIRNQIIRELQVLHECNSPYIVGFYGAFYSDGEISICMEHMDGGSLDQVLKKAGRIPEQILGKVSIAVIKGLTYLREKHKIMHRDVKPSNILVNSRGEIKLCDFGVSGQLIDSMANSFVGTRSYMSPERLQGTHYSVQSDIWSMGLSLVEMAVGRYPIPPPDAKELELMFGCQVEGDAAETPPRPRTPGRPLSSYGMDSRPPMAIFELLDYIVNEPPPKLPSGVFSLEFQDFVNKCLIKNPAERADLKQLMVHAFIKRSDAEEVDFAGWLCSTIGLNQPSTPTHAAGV
Description: as §1

PDGFRb kinase = PDGFRb kinase (Homo sapiens, UniProt P09619); settings: read-out: % Inhibition at 10 μM Concentration, PDGFRbeta
Sequence of PDGFRb kinase (P09619 33-1106): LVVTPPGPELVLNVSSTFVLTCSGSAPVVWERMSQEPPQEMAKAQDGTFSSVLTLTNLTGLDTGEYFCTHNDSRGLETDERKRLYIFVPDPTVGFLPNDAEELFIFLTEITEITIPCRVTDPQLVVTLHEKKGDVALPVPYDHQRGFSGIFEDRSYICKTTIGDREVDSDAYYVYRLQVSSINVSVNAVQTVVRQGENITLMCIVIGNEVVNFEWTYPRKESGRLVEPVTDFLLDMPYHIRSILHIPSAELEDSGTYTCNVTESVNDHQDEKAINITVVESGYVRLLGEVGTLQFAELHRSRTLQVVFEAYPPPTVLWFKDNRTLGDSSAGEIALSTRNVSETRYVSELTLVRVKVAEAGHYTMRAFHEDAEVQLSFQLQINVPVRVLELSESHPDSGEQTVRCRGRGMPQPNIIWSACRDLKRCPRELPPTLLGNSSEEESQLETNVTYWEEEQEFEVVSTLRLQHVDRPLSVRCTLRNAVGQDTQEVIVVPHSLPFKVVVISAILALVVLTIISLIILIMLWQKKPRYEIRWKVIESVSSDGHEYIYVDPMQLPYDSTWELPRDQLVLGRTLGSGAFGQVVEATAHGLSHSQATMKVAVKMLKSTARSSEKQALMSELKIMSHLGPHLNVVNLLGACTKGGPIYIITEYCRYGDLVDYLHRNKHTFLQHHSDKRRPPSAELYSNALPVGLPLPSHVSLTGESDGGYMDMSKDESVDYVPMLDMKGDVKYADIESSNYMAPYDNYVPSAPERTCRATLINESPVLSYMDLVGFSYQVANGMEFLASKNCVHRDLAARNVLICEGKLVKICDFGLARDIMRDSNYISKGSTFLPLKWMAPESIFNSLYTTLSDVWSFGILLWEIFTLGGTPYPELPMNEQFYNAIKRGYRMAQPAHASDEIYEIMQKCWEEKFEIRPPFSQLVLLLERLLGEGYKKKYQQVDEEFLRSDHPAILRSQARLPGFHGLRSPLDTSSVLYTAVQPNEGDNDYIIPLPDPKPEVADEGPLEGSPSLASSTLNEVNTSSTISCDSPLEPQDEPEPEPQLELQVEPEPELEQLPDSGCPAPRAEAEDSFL
Description: as §1

PDK1 = target: T4, PDK1 (Homo sapiens, UniProt O15530); settings: read-out: % Inhibition at 10 μM Concentration, PDK1
T4 sequence (O15530 1-556): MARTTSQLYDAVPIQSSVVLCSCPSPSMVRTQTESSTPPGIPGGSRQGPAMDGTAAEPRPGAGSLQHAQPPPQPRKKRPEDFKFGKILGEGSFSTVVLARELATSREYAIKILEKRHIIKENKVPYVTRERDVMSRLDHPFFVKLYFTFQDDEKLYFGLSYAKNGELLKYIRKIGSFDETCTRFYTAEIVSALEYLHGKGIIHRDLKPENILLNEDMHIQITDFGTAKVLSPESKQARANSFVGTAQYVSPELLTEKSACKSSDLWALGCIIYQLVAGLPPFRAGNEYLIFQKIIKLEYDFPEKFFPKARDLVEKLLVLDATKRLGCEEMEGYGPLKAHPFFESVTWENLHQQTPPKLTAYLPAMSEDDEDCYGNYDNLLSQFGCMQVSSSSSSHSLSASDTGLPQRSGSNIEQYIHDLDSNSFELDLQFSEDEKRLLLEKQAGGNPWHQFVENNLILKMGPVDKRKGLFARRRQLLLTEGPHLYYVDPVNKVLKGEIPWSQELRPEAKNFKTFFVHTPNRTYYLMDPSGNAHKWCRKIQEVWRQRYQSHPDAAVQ
Description: as §1

PKCa = PKCa (Homo sapiens, UniProt P17252); settings: read-out: % Inhibition at 10 μM Concentration, PKCalpha
Description: as §1

PKCb1 = PKCb1 (Homo sapiens, UniProt P05771); settings: read-out: % Inhibition at 10 μM Concentration, PKCbeta 1
Sequence of PKCb1 (P05771 whole entry): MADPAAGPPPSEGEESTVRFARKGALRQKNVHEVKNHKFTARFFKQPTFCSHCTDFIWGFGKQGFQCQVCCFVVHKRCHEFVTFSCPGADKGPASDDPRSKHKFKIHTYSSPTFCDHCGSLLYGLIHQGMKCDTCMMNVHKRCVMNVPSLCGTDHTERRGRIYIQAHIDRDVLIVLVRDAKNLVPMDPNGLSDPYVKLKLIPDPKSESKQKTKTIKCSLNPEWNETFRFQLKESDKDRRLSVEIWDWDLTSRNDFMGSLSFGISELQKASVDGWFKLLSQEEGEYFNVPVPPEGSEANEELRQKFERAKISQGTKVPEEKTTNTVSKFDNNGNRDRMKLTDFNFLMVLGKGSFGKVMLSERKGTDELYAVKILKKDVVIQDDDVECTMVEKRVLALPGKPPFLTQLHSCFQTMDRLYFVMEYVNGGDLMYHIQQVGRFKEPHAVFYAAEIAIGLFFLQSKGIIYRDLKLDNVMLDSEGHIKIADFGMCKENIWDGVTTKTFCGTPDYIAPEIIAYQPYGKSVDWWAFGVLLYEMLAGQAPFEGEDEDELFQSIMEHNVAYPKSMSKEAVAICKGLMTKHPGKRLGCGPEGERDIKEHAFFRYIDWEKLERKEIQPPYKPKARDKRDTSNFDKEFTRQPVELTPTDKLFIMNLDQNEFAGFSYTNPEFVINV
Description: as §1

p38d kinase = target: T5, p38d kinase (Homo sapiens, UniProt O15264); settings: read-out: % Inhibition at 10 μM Concentration, p38delta
T5 sequence (O15264 1-365): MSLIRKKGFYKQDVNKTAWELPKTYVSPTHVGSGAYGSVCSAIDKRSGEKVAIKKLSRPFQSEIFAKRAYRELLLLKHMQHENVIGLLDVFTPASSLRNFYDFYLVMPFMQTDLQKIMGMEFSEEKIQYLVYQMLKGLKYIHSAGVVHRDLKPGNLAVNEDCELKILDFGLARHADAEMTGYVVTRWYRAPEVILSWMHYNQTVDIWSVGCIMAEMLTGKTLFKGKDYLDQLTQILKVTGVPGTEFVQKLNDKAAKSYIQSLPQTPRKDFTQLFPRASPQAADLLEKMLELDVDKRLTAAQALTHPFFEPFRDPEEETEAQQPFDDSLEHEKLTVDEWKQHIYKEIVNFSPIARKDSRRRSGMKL
Description: as §1

| SMILES | inhibition at 10 µM (CDK2 (cycE)) [%] | inhibition at 10 µM (CSK) [%] | inhibition at 10 µM (EphB4 kinase) [%] | inhibition at 10 µM (MAPKAPK2) [%] | inhibition at 10 µM (MEK1/MAP2K1) [%] | inhibition at 10 µM (PDGFRb kinase) [%] | inhibition at 10 µM (PDK1) [%] | inhibition at 10 µM (PKCa) [%] | inhibition at 10 µM (PKCb1) [%] | inhibition at 10 µM (p38d kinase) [%] |
| --- | --- | --- | --- | --- | --- | --- | --- | --- | --- | --- |
| O=C1Nc2ccccc2/C1=C\c1ccc2cn[nH]c2c1 [Example A5, (E)-3-((1H-indazol-6-yl)methylene)indolin-2-one] | 16 | 5 | -5 | 0 | 3 | 19 | 2 | 0 | -5 | -8 |
| COc1ccc2c(c1)C(=Cc1ccc3c(-c4ccc(N5CCN(C)CC5)nc4)n[nH]c3c1)C(=O)N2 (mixture of isomers) [Example A97, (E and Z)-5-methoxy-3-((3-(6-(4-methylpiperazin-1-yl)pyridin-3-yl)-1H-indazol-6-yl)methylene)indolin-2-one] | 3 | 51 | 6 | 4 | 9 | 0 | 73 | 9 | 2 | 13 |
| O=C1Nc2ccccc2/C1=C\c1ccc2[nH]nnc2c1 [Example A1, (E)-3-((1H-benzo[d][1,2,3]triazol-5-yl)methylene)indolin-2-one] | 10 | 8 | 5 | 6 | 20 | 46 | -3 | 9 | 1 | 0 |
| O=C1Nc2ccccc2C1=Cc1ccc2c(/C=C/c3ccccn3)n[nH]c2c1 (mixture of isomers) [Example A41, (E and Z)-3-((3-((E)-2-(pyridin-2-yl)vinyl)-1H-indazol-6-yl)methylene)indolin-2-one] | 8 | 86 | 85 | 0 | 46 | 100 | 4 | 2 | -2 | -5 |
| O=C1Nc2ccccc2/C1=C\c1ccc2c(/C=C/c3ccccc3Cl)n[nH]c2c1 [Example A60, (E)-3-((3-((E)-2-chlorostyryl)-1H-indazol-6-yl)methylene)indolin-2-one] | 5 | 17 | -14 | 19 | 16 | 2 | 1 | -1 | 0 | 3 |

Reference: patent US8765748B2, “Indazolyl, benzimidazolyl, benzotriazolyl substituted indolinone derivatives as kinase inhibitors useful in the treatment of cancer” (University Health Network, priority 2007, dated 2014)
